Test system: db/db mice (BKS.Cg-m+/+Lepr^db/J)
Test: In vivo efficacy: control of body mass in db/db mice
Conditions: five week old at start, ad libitum p.o. in drinking water (5 mM chromium, pH 5.8), on average 1 mg/kg/day, over 22 weeks, control mice receiving water reached 43 g
Procedure: The mice were otherwise fed normal chow. Over the course of 22 weeks, the mice consumed on average 1 mg/kg/day of the compound. Mice on treatment reached an average mass of 37 g, while control mice receiving water reached an average mass of 43 g.

Chromium Quinolinate [Example 1] showed an average mass reached of 37 g.
